ChEMBL document CHEMBL1148244, “Inactivation of gamma-aminobutyric acid aminotransferase by (S)-4-amino-4,5-dihydro-2-furancarboxylic acid does not proceed by the expected aromatization mechanism” (Bioorg Med Chem Lett, 2004)

Biological target: 4-aminobutyrate aminotransferase (Sus scrofa) (UniProt P80147)
Test: Kinact for pyridoxal 5'-phosphate (PLP)-dependent Gamma-amino-N-butyrate transaminase at pH 7.4

Sequence of 4-aminobutyrate aminotransferase (Sus scrofa) (P80147 whole entry, looked up): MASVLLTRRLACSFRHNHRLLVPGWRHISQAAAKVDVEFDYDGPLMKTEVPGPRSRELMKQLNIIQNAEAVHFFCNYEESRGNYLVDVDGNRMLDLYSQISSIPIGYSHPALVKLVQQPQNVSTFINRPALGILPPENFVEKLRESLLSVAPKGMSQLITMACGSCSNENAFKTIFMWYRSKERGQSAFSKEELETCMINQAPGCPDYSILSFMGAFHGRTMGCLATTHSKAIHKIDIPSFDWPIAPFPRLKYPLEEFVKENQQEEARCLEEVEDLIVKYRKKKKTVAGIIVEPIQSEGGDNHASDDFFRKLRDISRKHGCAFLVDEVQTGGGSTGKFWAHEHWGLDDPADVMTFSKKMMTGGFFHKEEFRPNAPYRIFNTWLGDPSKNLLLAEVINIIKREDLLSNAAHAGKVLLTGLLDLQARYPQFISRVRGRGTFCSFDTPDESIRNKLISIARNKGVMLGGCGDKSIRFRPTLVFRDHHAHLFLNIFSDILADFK

K inact: 2.4 min⁻¹
Compound: NC1C=C(C(=O)O)OC1 (stereo unspecified)
